The values that follow come from patent US6333176A (Degussa Aktiengesellschaft, priority 1994, dated 2001).

Peptide text beside a SMILES is read from it. * marks the point of attachment. Cbz = O=C(OCc1ccccc1)*

Assay [1] relates to peptide amidase from flavedo of oranges. Conditions: cited from earlier work.
Assay [2] has as its target T1, peptide amidase from Xanthomonas maltophilia (Stenotrophomonas maltophilia, UniProt Q8RJN5).
T1 construct: wild type, not recombinant
T1 sequence (Q8RJN5 34-540): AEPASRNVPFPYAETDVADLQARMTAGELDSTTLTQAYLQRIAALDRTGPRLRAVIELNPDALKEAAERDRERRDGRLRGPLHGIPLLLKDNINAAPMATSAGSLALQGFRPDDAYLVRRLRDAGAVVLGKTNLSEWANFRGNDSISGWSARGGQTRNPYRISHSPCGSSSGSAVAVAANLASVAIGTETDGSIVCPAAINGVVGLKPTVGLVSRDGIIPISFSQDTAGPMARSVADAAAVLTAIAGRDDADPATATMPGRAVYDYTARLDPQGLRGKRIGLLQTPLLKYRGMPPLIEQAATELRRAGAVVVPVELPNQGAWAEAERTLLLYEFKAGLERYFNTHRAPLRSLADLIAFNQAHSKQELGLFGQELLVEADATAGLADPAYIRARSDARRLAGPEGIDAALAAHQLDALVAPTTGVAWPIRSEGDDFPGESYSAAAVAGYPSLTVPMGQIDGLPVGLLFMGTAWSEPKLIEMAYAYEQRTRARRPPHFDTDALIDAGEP
Description: biochemical. The format is biochemical.

Assay [3] concerns the target T1, peptide amidase from Xanthomonas maltophilia. Description: Enzyme kinetics of peptide amidase. In kind it is biochemical. Conditions: substrate 0.4 to 20 mM, 50 mM tris/HCl pH 7.5, 2 hours, 30° C. The procedure:
The dependency of the reaction rate of peptide amidase from Xanthomonas maltophilia on the substrate concentration (Z-Gly-Tyr-NH2) was determined and the kinetic parameters determined from the data according to Marquardt. To this end, 50 μl enzyme solution a 27 μg BSAeq/ml were compounded with 400 μl 50 mM tris/HCl buffer, pH 7.5. The reaction was started by adding Z-Gly-Tyr-NH2 as substrate. The substrate was present in the reaction batches in a concentration range of 0.4 to 20 mM. The incubation took place for 2 hours at 30° C. The enzyme activity was then determined as described under 1.4.
The reaction conditions were selected with a view to the pH stability of peptide amidase from Xanthomonas maltophilia.
In order to stop the reaction 100 μl of the reaction solution was removed, compounded with 100 μl glacial acetic acid and filled with 1.4 ml HPLC mobile solvent. An aliquot of 20 μl was analyzed by HPLC. The conditions for the HPLC analysis of Z-Gly-Tyr-NH2 were as follows: […]

In general, residual activity refers to what remains of the control signal, in per cent. High values mean much activity left, low ones little activity left. In the case of `O=S(=O)(F)Cc1ccccc1` [Phenylmethane sulfonyl fluoride], in assay [1], the “inhibition by inhibitors from serine proteases” value is listed as “Slight inhibition”. Moreover, the “inhibition of the microbial peptide amidase (serine groups)” value in assay [2] is listed as “Inhibition”. In assay [2] (potential inhibitor 10 mM in the test, preincubation 1 h 30° C., Z-Gly-Tyr-NH2 10 mM, 2.5 h), this compound returned a residual activity of 58%.

For `NC(=O)[C@H](Cc1ccc(O)cc1)NC(=O)CNC(=O)OCc1ccccc1` [Z-Gly-Tyr-NH2] (Cbz-Gly-Tyr-NH2), the vmax in assay [3] was 0.53 U/mg BSAeq.
